# Data taken from US20020115642A1, “Beta-lactam antibiotics” (priority 2000, published 2002).
# Where two headings read alike, the source gives them in different places.
# Key:
# [1] = tested on: K. pneumoniae; assay: Susceptibility testing (MIC, modified NCCLS method); assay type: cell-based, Klebsiella pneumoniae; conditions: Klebsiella pneumoniae
# Outline: (§1)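 Readout OD600 increase. Compounds (aqueous or DMSO stocks) serially diluted 2-fold across 20 concentrations, then inoculated with bacterial broth culture to final ~1-1.5×10^6 cells/ml; screening-adapted NCCLS microdilution.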
# [2] = tested on: E. faecalis; assay: as above; assay type: cell-based, Enterococcus faecalis; conditions: for MIC: Enterococcus faecalis
# Outline: as §1
# [3] = tested on: E. aerogenes; assay: Susceptibility testing (MIC, modified NCCLS method); assay type: cell-based, Enterobacter aerogenes; conditions: for MIC: Klebsiella aerogenes
# Outline: as §1
# [4] = tested on: E. coli N; assay: as above; assay type: cell-based, Escherichia coli; conditions: Escherichia coli, read-out: MIC
# Description: (§2) The NCCLS (National Committee for Clinical Laboratory Standards) method to determine MIC's of antimicrobial compounds was modified for high-throughput screening. All stocks of tested compounds were prepared in either water or in dimethylsulfoxide (DMSO), depending on the solubility. […] Briefly 20 2-fold serial dilutions of testing compounds from the highest concentration were made in a 384-well microtiter plate. Each well was inoculated with testing bacteria in broth to a final concentration of approximately 1-1.5×10^6 cells/ml. Bacterial growth was determined by the increase of optical density at 600 nm using a microplate reader (Tecan SpectraFluor Plus).
# [5] = tested on: E. coli/TEM-1; assay: as above; assay type: cell-based, Escherichia coli; conditions: Escherichia coli
# Description: as §2
# [6] = tested on: E. cloacae; assay: as above; assay type: cell-based, Enterobacter cloacae; conditions: for MIC: Enterobacter cloacae
# Outline: as §1
# [7] = tested on: P. aeruginosa; assay: as above; assay type: cell-based, Pseudomonas aeruginosa; conditions: Pseudomonas aeruginosa, read-out: MIC
# Outline: as §1
# [8] = tested on: Staphylococcus aureus; assay: as above; assay type: cell-based; conditions: Staphylococcus aureus
# Outline: as §1
# [9] = tested on: O=C(Cc1cccs1)N[C@@H]1C(=O)N2C(C(=O)O)=C(/C=C/c3ccc([N+](=O)[O-])cc3[N+](=O)[O-])CS[C@H]12; assay: purified protein, by the assay type; conditions: other: progress curve analysis at 16 μM Compound (9) and […] TEM-1 β-lactamase, 37° C.
# [10] = tested on: S. epidermidis; assay: Susceptibility testing (MIC, modified NCCLS method); assay type: cell-based, Staphylococcus epidermidis; conditions: S. epidermidis (5)
# Description: as §2
# [11] = tested on: S. pneumoniae; assay: as above; assay type: cell-based, Streptococcus pneumoniae; conditions: S. pneumoniae (3)
# Description: as §2
# [12] = tested on: E. faecium; assay: as above; assay type: cell-based, Enterococcus faecium; conditions: E. faecium (6)
# Description: as §2
# [13] = tested on: E coli R(Tem1); assay: Inhibition of bacterial growth (IC50, OD600); assay type: cell-based; conditions: for IC50 ratio N/R: N versus R (Tem1)
# Description: Compounds of the invention were tested for their ability to inhibit the growth of β-lactam sensitive and resistant bacteria by contacting samples of such cells with various dilutions of the compositions, incubating the cells at 37° C. in the presence of these compositions and then measuring the number of viable cells present in each sample.
# Two compounds of the invention were tested, Compound (9) and Compound (1l). Incubation of bacterial cells was performed for two time periods, 10 hours and 20 hours. Four E. coli strains were used for the test. These strains were all derived from the strain NovaBlue (NovaGen Inc., Madison, Wis.). E. coli N is a normal, β-lactam sensitive strain. E coli R(Tem1) is a β-lactam resistant strain with a β-lactamase gene on a plasmid. E. coli C(Tem4O-15) is a β-lactam resistant strain with a β-lactam inhibitor resistant β-lactamase gene, and E. coli C(Tem3 1-27) is β-lactam resistant strain with an alternative β-lactam inhibitor resistant β-lactamase gene.
# The various E. coli strains were each treated with dilutions of the compounds of the invention. […] The number of viable cells at each time point was determined by measuring the OD600 of each cell sample.
# After measuring the number of viable cells present, the IC50 for each sample was determined. […] In addition, both compounds were effective at inhibiting the growth of both antibiotic sensitive and resistant bacterial cells.
# [14] = tested on: UDP-glucuronosyltransferase; assay: Glucuronidation assay; assay type: in vitro ADME, human; conditions: 100 μM, 100 μg human liver microsome, 37° C., 1 hour, TLC
# Description: Assays were conducted as outlined in Example 15, using 100 μM Compound (9), triclosan or cephalothin incubated with 100 μg human liver microsome at 37° C. for 1 hour. The reactants were analyzed on TLC plate, and glucuronidated compounds were visualized by MolecularDynamics Storm 820.
# Glucuronidation assay was performed based on modified procedure from Bansal and Gessner (1980) Anal. Biochem. 109:321-329. Reactions were performed in 50 mM Tris buffer, pH 7.6, containing 10 mM MgCl2, ImM UDPGA, 0.04 μCi of ^14C-UDPGA, 0.1 mM substrate, and 100 μg human liver microsome. The final volume was 100 μL. Reactions were incubated at 37° C. for one hour and the reactants extracted with 200 μL of 100% ethanol. The protein was removed by centrifugation at 12,000×g for 5 minutes in an Eppendorf centrifuige. The supernatant was dried and resuspended in 30 μL of 100% methanol and spotted on a Whatman glass-backed linear k TLC plate. Chromatography was performed in a mixture of 1-butanol/acetone/acetic acid/water (35:35:10:20). The TLC plate was then dried and exposed to phosphor imager overnight, then monitored by imaging (MolecularDynamics Storm 820).
# [15] = tested on: TEM-52, an antibiotic-resitant E. coli; conditions: TEM-52 versus wild-type; Fletcher (2001); cited from earlier work
compound,measurement,setting,value
"O=C(Cn1cnnn1)NC1C(=O)N2C(C(=O)O)=C(COc3cc(Cl)ccc3Oc3ccc(Cl)cc3Cl)CS[C@H]12 (stereo partly shown) [Compound 29, 3-(2-(2,4-Dichlorophenoxy)-5-chlorophenoxy)methyl-7-(1-tetrazoleacetamido)-3-cephem-4-carboxylic acid]",MIC,"[1]; ATCC51503, K. pneumoniae ATCC 51503, read-out: MIC",8 mg/L
same,MIC,"[1]; ATCC700721, K. pneumoniae ATCC 700721, read-out: MIC",1 mg/L
same,MIC,"[2]; ATCC49757, E. faecalis ATCC 49757, read-out: MIC",8 mg/L
same,MIC,"[2]; ATCC700802, E. faecalis ATCC 700802, read-out: MIC",16 mg/L
same,melting point,,112 °C
same,MIC,"[3]; ATCC35028, E. aerogenes ATCC 35028, read-out: MIC",32 mg/L
same,MIC,[4]; E. coli (N),2 mg/L
same,MIC,[5],0.063 mg/L
same,MIC,"[6]; ATCC23355, E. cloacae ATCC 23355, read-out: MIC",1 mg/L
same,MIC,"[7]; ATCC21726, P. aeruginosa ATCC 21726",> 32 mg/L
same,MIC,"[7]; ATCC29872, P. aeruginosa ATCC 29872",> 32 mg/L
same,MIC,"[8]; ATCC11632, S. aureus ATCC 11632, read-out: MIC",0.063 mg/L
same,MIC,"[8]; ATCC33594, S. aureus ATCC 33594, read-out: MIC",0.063 mg/L
same,MIC,"[8]; ATCC700260, S. aureus ATCC 700260, read-out: MIC",0.063 mg/L
same,MIC,"[8]; ATCC700699, S. aureus ATCC 700699, read-out: MIC",0.125 mg/L
TEM-1 β-lactamase (Escherichia coli),Km,[9],15 µM
same,kcat,[9],3.3 s⁻¹
same,kcat/Km,[9],220000 M⁻¹ s⁻¹
"CC(=O)OCC1=C(C(=O)O)N2C(=O)[C@@H](NC(=O)Cc3cccs3)[C@H]2SC1 [Cephalothin, cephalothin, reference compound]",MIC,"[1]; K. pneumoniae (5), read-out: GM* MIC (geometric mean)",> 66 mg/L
same,MIC range,[10],0.2 to 25 mg/L
same,MIC,"[10]; Staphylococcus epidermidis, read-out: GM* MIC (geometric mean)",1.81 mg/L
same,MIC range,[2]; E. faecalis (7),25 to 100 mg/L
same,MIC,"[2]; E. faecalis (7), read-out: GM* MIC (geometric mean)",61 mg/L
same,MIC range,[3]; E. aerogenes (5),>100 mg/L
same,MIC,"[3]; E. aerogenes (5), read-out: GM* MIC (geometric mean)",> 100 mg/L
same,MIC,"[4]; E. coli, BLA neg., drug alone",16 mg/L
same,MIC,[5],> 32 mg/L
same,MIC range,[6]; E. cloacae (1),>100 mg/L
same,MIC,"[6]; E. cloacae (1), read-out: GM* MIC (geometric mean)",> 100 mg/L
same,MIC range,[11],0.06 to 2 mg/L
same,MIC,"[11]; Streptococcus pneumoniae, read-out: GM* MIC (geometric mean)",0.247 mg/L
same,MIC range,[12],>100 mg/L
same,MIC,"[12]; Enterococcus faecium, read-out: GM* MIC (geometric mean)",> 100 mg/L
same,MIC,"[8]; ATCC11632, ATCC 11632, methicillin-sensitive, β-lactamase Neg./Pos., read-out: MIC",0.2 mg/L
same,MIC,"[8]; ATCC13301, ATCC 13301, methicillin-sensitive, β-lactamase Positive, read-out: MIC",6.25 mg/L
same,MIC,"[8]; ATCC14154, ATCC 14154, methicillin-sensitive, β-lactamase Positive, read-out: MIC",0.39 mg/L
same,MIC,"[8]; ATCC33591, ATCC 33591, methicillin-resistant, β-lactamase Positive, read-out: MIC",0.56 mg/L
same,MIC,"[8]; ATCC33592, ATCC 33592, methicillin-sensitive, β-lactamase Positive, read-out: MIC",1.56 mg/L
same,MIC,"[8]; ATCC33593, ATCC 33593, methicillin-resistant, β-lactamase Positive, read-out: MIC",0.78 mg/L
same,MIC,"[8]; ATCC33594, ATCC 33594, methicillin-sensitive, β-lactamase Positive, read-out: MIC",0.2 mg/L
same,MIC,"[8]; ATCC43300, ATCC 43300, methicillin-sensitive, β-lactamase Neg./Pos., read-out: MIC",0.39 mg/L
same,MIC,"[8]; ATCC700260, ATCC 700260, methicillin-sensitive, β-lactamase Positive, read-out: MIC",0.39 mg/L
same,MIC,"[8]; ATCC700698, ATCC 700698, methicillin-resistant, β-lactamase Negative, read-out: MIC",100 mg/L
same,MIC,"[8]; ATCC700699, ATCC 700699, methicillin-resistant, β-lactamase Negative, read-out: MIC",100 mg/L
same,MIC,"[8]; ATCC700787, ATCC 700787, methicillin-resistant, β-lactamase Positive, read-out: MIC",50 mg/L
same,MIC,"[8]; ATCC700788, ATCC 700788, methicillin-resistant, β-lactamase Positive, read-out: MIC",3.13 mg/L
same,MIC,"[8]; ATCC700789, ATCC 700789, methicillin-resistant, β-lactamase Positive, read-out: MIC",6.25 mg/L
same,MIC,"[8]; MRSA, MRSA tested (7), read-out: Geometric mean of MIC",10.2 mg/L
same,MIC,"[8]; MSSA, MSSA tested (7), read-out: Geometric mean of MIC",0.58 mg/L
same,MIC,"[8]; S. aureus (14), read-out: Geometric mean of MIC",2.45 mg/L
same,MIC,"[8]; S. aureus β-lactamase negative (2), read-out: Geometric mean of MIC",100 mg/L
same,MIC,"[8]; S. aureus β-lactamase positive (12), read-out: Geometric mean of MIC",1.32 mg/L
"Oc1cc(Cl)ccc1Oc1ccc(Cl)cc1Cl [Triclosan, triclosan, reference compound]",IC50 ratio N/R,[13]; 10 hours,N/R = 1555x
same,IC50 ratio N/R,[13]; 20 hours,N/R = 2.5x
same,IC50,"[13]; Escherichia coli, 10 h, read-out: IC50 10 hours, Cell R (Tem1), 10 hours",0.166 nM
same,IC50,"[13]; read-out: IC50 10 hours, Cell R (Tem1), 10 hours",0.24 nM
same,glucuronidation by human liver microsome,[14],glucuronidated
CO/N=C(\C(=O)N[C@@H]1C(=O)N2C(C(=O)O)=C(COC(C)=O)CS[C@H]12)c1csc(N)n1 [cefotaxime],fold more resistant than wild-type E coli,[15],more than 500 fold
